The text below walks through data of US12589122B2, “Methods and compositions for treating infectious, autoimmune, and allergic disease” (The University of Chicago, priority 2018, dated 2026).

Entries after “also recorded” stand apart in the source; their conditions may differ.

For experiment [1], the system named is A. caccae_lah. Briefly: Antibiotic susceptibility by growth inhibition around antibiotic discs. It is filed as cell-based, Anaerostipes caccae. As to conditions: discs 10 μg ampicillin, 30 μg tetracycline; BHI agar, 37° C. anaerobic, six days. The protocol: Plates are incubated at 37° C. in anaerobic conditions for six days.
For experiment [2], the system named is A. caccae_lah. Briefly: In vitro fermentation in PY broth, monoculture butyrate production (HPLC-UV-Vis). It is filed as cell-based, Anaerostipes caccae. The settings on record: for lactate or acetate in the media at 48 h: A. caccae_lah monoculture, Nutramigen plus 40 mM lactate+33 mM acetate; for butyrate production by A. caccae_lah: monoculture, PY broth supplemented with 10 mg/ml carbohydrates, 48 h. The protocol: (§1) This method of preculture is used for all future in vitro fermentation experiments. Then 10 μl of preculture was transferred into 7 mL minimal peptone yeast (PY) broth alone or supplemented with 10 mg/ml of glucose, sucrose, lactose, cellobiose, or potato starch. All of these variations of PY were pre-reduced anaerobically prepared by Anaerobe Systems. Growth and butyrate production were measured after 48 h. […] Butyrate in solution is quantified by HPLC-UV-Vis as described in reference 61 and 62. […] These simple sugars are similar to those found in infant formula. […] These are the same formulas consumed by the healthy (Enfamil®) and CMA (Nutramigen®) infant donors and are also consumed by all mice colonized with these respective microbiomes. […] All groups were analyzed by one way ANOVA. *P<0.05, **P<0.01, ***P<0.001, ****P<0.0001 versus PY.
(§2) Other groups have shown that primary degraders, namely Bacteroides species, break down complex fibers and produce metabolites lactate and acetate which Clostridia species can then consume to produce butyrate (59). […] Growth and butyrate production were measured after 48 h. […] All groups were analyzed by one way ANOVA. *P<0.05, **P<0.01, ***P<0.001, ****P<0.0001 versus PY alone.

The subject of experiment [3] is A. caccae_lah. The experiment is described as follows: In vitro fermentation in PY broth, monoculture growth (OD600). It counts as cell-based, Anaerostipes caccae. As to conditions: 48 h; for Growth of A. caccae_lah / Growth of A. caccae_lah (OD600): monoculture; for Growth of A. caccae_lah: PY broth supplemented with 33 mM acetate and/or 40 mM lactate; for Growth of A. caccae_lah (OD600): PY broth supplemented with 10 mg/ml carbohydrates. The protocol:
as §1, §2

Experiment [4] concerns BLG plus CT sensitized mice, anaphylactic response to BLG challenge. It is filed as in vivo, C3H/HeN mice.
The test system of a further experiment is BLG-specific IgE. Briefly: Serum BLG-specific IgE ELISA after challenge. It is filed as in vivo, mouse. The settings on record: A. caccae monocolonized vs CMA colonized mice. An excerpt: (§3) Food allergen sensitization and challenge. Protocols were adapted from reference 7. All mice were weaned onto a plant-based mouse chow (Purina Lab Diet® 5K67) at 3 weeks of age. GF mice received autoclaved sterile water. For mice colonized with feces from infant donors, or monocolonized with A. caccae, the drinking water was replaced by formula four hours prior to colonization. Mice colonized with healthy feces or A. caccae received Enfamil®; CMA colonized mice received Nutramigen® (both from Mead Johnson). On day 0, one week post weaning (GF) or colonization (healthy/A. caccae/CMA), all mice were fasted for 4 hours and then given a gavage of 200 mM sodium bicarbonate. 30 minutes later, mice were given 20 mg BLG (Sigma) plus 10 μg CT (List Biologicals). This protocol was repeated weekly for 5 weeks. For formula-fed mice, formula was replaced by sterile water for the week after the last sensitization. Prior to challenge on day 42, mice were fasted for 4 hours and given sodium bicarbonate by gavage. Two doses of 100 mg BLG each were then administered via intragastric gavage 30 minutes apart. Core body temperature was measured in a blinded fashion prior to allergen challenge and every 5 minutes after the first challenge until at least 30 minutes after the second challenge using a rectal probe (PhysiTemp). Serum was collected 1 hour after the second challenge to measure mMCPT-1 levels.

The subject of a further experiment is BLG-specific IgG1. The experiment is described as follows: Serum BLG-specific IgG1 ELISA after challenge. The settings on record: A. caccae monocolonized vs CMA colonized mice. It counts as in vivo, mouse.
From the text: as §3
A general note: In an ELISA, binding on a coated surface is turned into a signal by an enzyme label.

A further experiment deals with IL-4. Briefly: Splenocyte cytokine ELISA after BLG stimulation (IL-4). It is filed as cell-based, mouse. The settings on record: sacrificed 24 h post challenge, stimulated 72 h with BLG; A. caccae vs CMA colonized. The protocol: (§4) For cytokine analysis spleens were harvested 24 h post challenge from A. caccae or CMA colonized mice sensitized with BLG+CT for 5 weeks. Splenocytes were stimulated at a concentration of 2×10^6 cells/ml at 37° C., 10% CO2 with 10 mg/ml BLG (Sigma) in cDMEM (with 4% FCS (HyClone), 10 mM HEPES (Gibco), 100 U/ml Penicillin/Streptomycin (Gibco) and 55 μM 2-mercaptoethanol (Gibco). Cytokine concentrations in 72 hr culture supernatants were determined by ELISA for IL-13 and IL-4 (both from Invitrogen).

The next experiment relates to mMCPT-1. The experiment is described as follows: Serum mMCPT-1 ELISA 1 hour after second challenge. It counts as in vivo, mouse. The settings on record: A. caccae monocolonized compared to CMA colonized mice.
From the text: as §3

In another experiment the test system is IL-13. The experiment is described as follows: Splenocyte cytokine ELISA after BLG stimulation (IL-13). It counts as cell-based, mouse. As to conditions: sacrificed 24 h post challenge, stimulated 72 h with BLG; A. caccae vs CMA colonized. How it is done:
as §4

Experiment [5] relates to Ror2, Fbp1, Tgfbr3, Acot12 and Me1 in ileal IECs. Briefly: qPCR gene expression in ileal IECs. It counts as in vivo, mouse. The settings on record: A. caccae monocolonized compared to GF or CMA-colonized mice. The protocol: Epithelial cell isolation. As in sensitization experiments, mice were weaned at 3 weeks of age and placed on infant formula prior to colonization. Seven days after colonization, mice were euthanized and ileum was removed. For IEC isolation, tissues were cleaned and inverted as described in ref (43). IECs were collected by inflating inverted tissue in Cell Recovery Solution (Corning) every 5 minutes for 30 minutes. IEC samples were lysed in TRIZol (ThermoFisher) and RNA was extracted with PureLink RNA Mini Kit (Ambion) plus on-column DNAse treatment (PureLink DNAse Set, Ambion).
qPCR. Gene expression was measured by qPCR as described in reference 7. In brief, cDNA was prepared from RNA using the iScript cDNA Synthesis kit (BioRad). Gene expression was measured with PowerUp SYBR green master mix (Applied Biosystems) according to the manufacturer's instructions. Primers are listed in Supplementary Table 7 (20, 50-54). Expression of genes of interest was normalized to Hprt. Relative expression was measured using ΔΔCt centered around the geometric mean; GF mice were used as a reference.
For orientation: Real-time PCR tracks product formation cycle by cycle.

For `CC1(C)S[C@@H]2[C@H](NC(=O)[C@H](N)c3ccccc3)C(=O)N2[C@H]1C(=O)O` [ampicillin], the “antibiotic susceptibility of A. caccae_lah (zone of clearance)” value with A. caccae_lah [1] is recorded as “highly susceptible”.
As to `CC(=O)O` [acetate], the “lactate or acetate in the media at 48 h” value with A. caccae_lah [2] is “no detectable”. Moreover, the “Growth of A. caccae_lah” value in the experiment with A. caccae_lah [3] is “significant growth”.
Turning to `OC[C@H]1O[C@@](CO)(O[C@H]2O[C@H](CO)[C@@H](O)[C@H](O)[C@H]2O)[C@@H](O)[C@@H]1O` [sucrose], in the experiment with A. caccae_lah [2], the “butyrate production by A. caccae_lah” value is given as “produced the most butyrate”. Also, in the experiment on A. caccae_lah [3], the “Growth of A. caccae_lah (OD600)” value is given as “grew abundantly”.
Consider Anaerostipes caccae [A. caccae], for which, in [4] (A. caccae monocolonized compared to CMA colonized mice), the “changes in core body temperature after BLG challenge” value was “significantly reduced”. Also, the “anaphylactic response to BLG challenge” value in experiment [4] (BLG plus CT sensitized A. caccae monocolonized mice) was “protected against an anaphylactic response to BLG challenge; also recorded: protects against an allergic response to food”. Further, the “serum BLG-specific IgE” value in the experiment on BLG-specific IgE was “reduced”. In the experiment with BLG-specific IgG1, the “serum BLG-specific IgG1” value was “reduced”. Moreover, in the experiment with IL-4, the “IL-4 in culture supernatants of splenocytes” value was “reduced”. For the same compound, the “serum concentrations of mMCPT-1” value with mMCPT-1 is reported as “significantly reduced”. The “IL-13 in culture supernatants of splenocytes” value in the experiment on IL-13 was “reduced”. Besides, in experiment [5], the “Fbp1 gene expression in ileal IECs (qPCR)” value is “significantly upregulated” and the “Tgfbr3 gene expression in ileal IECs (qPCR)” value is “significantly upregulated”.
In the case of `OC[C@H]1O[C@@H](O[C@H]2[C@H](O)[C@@H](O)C(O)O[C@@H]2CO)[C@H](O)[C@@H](O)[C@H]1O` (some centres unmarked) [lactose], in the experiment on A. caccae_lah [2], the “butyrate production by A. caccae_lah” value is “produced the most butyrate”. In addition, the “fermentation by A. caccae_lah in monoculture” value in the experiment with A. caccae_lah [3] (minimal PY broth supplemented with 10 mg/ml carbohydrates) was “can ferment”. For the same compound, the “Growth of A. caccae_lah (OD600)” value with A. caccae_lah [3] is given as “grew abundantly”.
In the case of `CC(O)C(=O)O` (centres unmarked) [lactate], the “lactate or acetate in the media at 48 h” value with A. caccae_lah [2] was “no detectable”. In addition, the “Growth of A. caccae_lah” value in the experiment with A. caccae_lah [3] is “significant growth”.
`O=C[C@H](O)[C@@H](O)[C@H](O[C@@H]1O[C@H](CO)[C@@H](O)[C@H](O)[C@H]1O)[C@H](O)CO` [cellobiose]: the “butyrate production by A. caccae_lah” value in the experiment on A. caccae_lah [2] is recorded as “not able to produce significant butyrate”.
